According to patent US20240209053A1 (Protagonist Therapeutics, Inc., priority 2021, published 2024):
Numbered stars: 1 amine (or outer) side, 2 acyl side, 3 side chain; on linkers, the order of the positions; unused ones are H or OH. Bridge positions count the residues as written; N and C are the ends. Square brackets hold non-standard residues; d marks the D form. Side chains are listed from the residue outwards. Peptide text beside a SMILES is read from it. * marks the point of attachment. Nle(6-ylidene) = O=C([C@H](CCCC=[*:3])N[*:1])[*:2]; Dip = N[C@H](C(=O)O)C(c1ccccc1)c1ccccc1; Hag = O=C([C@H](CCC=[*:3])N[*:1])[*:2]; Palmitoyl = CCCCCCCCCCCCCCCC(=O)*; tBuAla = CC(C)(C)C[C@H](N)C(=O)O; β3hF = N[C@H](CC(=O)O)Cc1ccccc1; AllylGly = C=CC[C@H](N)C(=O)O; Isovaleryl = CC(C)CC(=O)*; Ahx = NCCCCCC(=O)O

These molecules were tested against T1, human ferroportin (SLC40A1) (Homo sapiens, UniProt Q9NP59) (assay: FPN activity assay: internalization/degradation of ferroportin-GFP in stably transfected HEK293 cells (decrease in GFP fluorescence)). Conditions: compound incubated at least 18 hours.
T1 sequence (Q9NP59 1-571): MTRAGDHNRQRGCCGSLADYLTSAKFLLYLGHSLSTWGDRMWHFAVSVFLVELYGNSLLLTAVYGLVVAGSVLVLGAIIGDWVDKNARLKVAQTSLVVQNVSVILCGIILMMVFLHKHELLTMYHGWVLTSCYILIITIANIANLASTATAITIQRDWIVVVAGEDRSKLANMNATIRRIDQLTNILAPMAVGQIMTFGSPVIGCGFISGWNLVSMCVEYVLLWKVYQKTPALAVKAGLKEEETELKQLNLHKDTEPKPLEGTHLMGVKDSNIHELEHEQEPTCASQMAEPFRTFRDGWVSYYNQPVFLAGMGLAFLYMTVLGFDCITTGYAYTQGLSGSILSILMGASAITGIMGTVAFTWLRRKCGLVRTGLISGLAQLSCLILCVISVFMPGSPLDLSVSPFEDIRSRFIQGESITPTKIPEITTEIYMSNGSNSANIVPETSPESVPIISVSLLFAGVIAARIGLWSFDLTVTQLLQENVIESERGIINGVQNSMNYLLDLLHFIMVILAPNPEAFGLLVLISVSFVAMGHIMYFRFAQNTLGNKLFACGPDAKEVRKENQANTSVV
Assay type: cell-based
Method: Peptide analogues were tested in vitro for induction of internalization of the human ferroportin protein. Following internalization, the ferroporin protein is degraded. The assay used (FPN activity assay) measures a decrease in fluorescence of the receptor. The cDNA encoding the human ferroportin (SLC40A1) was cloned from a cDNA clone from Origene (NM_014585). The DNA encoding the ferroportin was amplified by PCR using primers also encoding terminal restriction sites for subcloning, but without the termination codon. The ferroportin receptor was subcloned into a mammalian GFP expression vector containing a neomycin (G418) resistance marker in such that the reading frame of the ferroportin was fused in frame with the GFP protein. The fidelity of the DNA encoding the protein was confirmed by DNA sequencing. HEK293 cells were used for transfection of the ferroportin-GFP receptor expression plasmid. The cells were grown according to standard protocol in growth medium and transfected with the plasmids using Lipofectamine (manufacturer's protocol, Invitrogen). The cells stably expressing ferroportin-GFP were selected using G418 in the growth medium (in that only cells that have taken up and incorporated the cDNA expression plasmid survive) and sorted several times on a Cytomation MoFloTM cell sorter to obtain the GFP-positive cells (488 nm/530 nm). The cells were propagated and frozen in aliquots. […] Compound was added to desired final concentration for at least 18 hours in the incubator. […] Compound was added to desired final concentration for at least 18 hours but no more than 24 hours in the incubator. […] The “RI” in RI-Mini-Hepcidin refers to Retro Inverse. A retro inverse peptide is a peptide with a reversed sequence in all D amino acids. An example is that […] becomes […]. The EC50 of these reference compounds for ferroportin internalization/degradation was determined according to the FPN activity assay described above. These peptides served as control standards.

`CCCCCCCCCCCCCCCC(=O)NCCCCCC(=O)NCCCC[C@H](NC(=O)C[C@H](Cc1ccccc1)NC(=O)[C@@H]1CCC=CCC[C@H](NC(=O)CC(C)C)C(=O)N[C@@H]([C@@H](C)O)C(=O)N[C@@H](Cc2c[nH]cn2)C(=O)N[C@@H](C(c2ccccc2)c2ccccc2)C(=O)N2CCC[C@H]2C(=O)N1)C(N)=O` (single isomer, unassigned) [Compd 20] and `CCCCCCCCCCCCCCCC(=O)NCCCCCC(=O)NCCCC[C@H](NC(=O)C[C@H](Cc1ccccc1)NC(=O)[C@@H]1CCC=CCC[C@H](NC(=O)CC(C)C)C(=O)N[C@@H]([C@@H](C)O)C(=O)N[C@@H](Cc2c[nH]cn2)C(=O)N[C@@H](C(c2ccccc2)c2ccccc2)C(=O)N2CCC[C@H]2C(=O)N[C@@H]([C@@H](C)CC)C(=O)N1)C(N)=O` [Compd 19] (Isovaleryl-[Hag]TH[Dip]PI[Hag][β3hF]K([Ahx-Palmitoyl])-NH2; staple 1-7) cannot be ordered by IC50: > 500 nM for the first, > 500 nM for the second.

First: CCCCCCCCCCCCCCCC(=O)NCCCCCC(=O)NCCCC[C@@H]1NC(=O)[C@@H]2CCCN2C(=O)[C@H](C(c2ccccc2)c2ccccc2)NC(=O)[C@H](Cc2c[nH]cn2)NC(=O)[C@H]([C@@H](C)O)NC(=O)[C@@H](NC(=O)CC(C)C)CCC=CCC[C@@H](C(=O)N[C@H](CC(=O)N[C@H](CCCCN)C(N)=O)Cc2ccccc2)NC1=O (single isomer, unassigned) [Compd 38]
Second: CCCCCCCCCCCCCCCC(=O)NCCCCCC(=O)NCCCC[C@@H]1NC(=O)[C@H](C)NC(=O)[C@@H]2CCCN2C(=O)[C@H](C(c2ccccc2)c2ccccc2)NC(=O)[C@H](Cc2c[nH]cn2)NC(=O)[C@H]([C@@H](C)O)NC(=O)[C@@H](NC(=O)CC(C)C)CCC=CCC[C@@H](C(=O)N[C@H](CC(=O)N[C@H](CCCCN)C(N)=O)Cc2ccccc2)NC1=O (single isomer, unassigned) [Compd 39]
The IC50 of the first is higher: > 500 nM for the first, 100 to 500 nM for the second.

`CCCCCCCCCCCCCCCC(=O)NCCCCCC(=O)NCCCC[C@@H]1NC(=O)[C@@H]2CCCN2C(=O)[C@H](C(c2ccccc2)c2ccccc2)NC(=O)[C@H](Cc2c[nH]cn2)NC(=O)[C@H]([C@@H](C)O)NC(=O)[C@@H](NC(=O)CC(C)C)CCC=CCC[C@@H](C(=O)N[C@H](CC(=O)N[C@H](CCCCN)C(N)=O)Cc2ccccc2)NC1=O` (single isomer, unassigned) [Compd 40] and `CCCCCCCCCCCCCCCC(=O)NCCCCCC(=O)NCCCC[C@@H]1NC(=O)[C@@H]2CCCN2C(=O)[C@H](C(c2ccccc2)c2ccccc2)NC(=O)[C@H](Cc2c[nH]cn2)NC(=O)[C@H]([C@@H](C)O)NC(=O)[C@@H](NC(=O)CC(C)C)CCCC=CCCC[C@@H](C(=O)N[C@H](CC(=O)N[C@H](CCCCN)C(N)=O)Cc2ccccc2)NC1=O` [Compd 35] (Isovaleryl-[Nle(6-ylidene)]TH[Dip]PK([Ahx-Palmitoyl])[Nle(6-ylidene)][β3hF][dK]-NH2; staple 1-7) cannot be ordered by IC50: > 500 nM for the first, > 500 nM for the second.

`CCCCCCCCCCCCCCCC(=O)NCCCCCC(=O)NCCCC[C@H](NC(=O)C[C@H](Cc1ccccc1)NC(=O)[C@@H]1CCC=CCC[C@H](NC(=O)CC(C)C)C(=O)N[C@@H]([C@@H](C)O)C(=O)N[C@@H](Cc2c[nH]cn2)C(=O)N[C@@H](C(c2ccccc2)c2ccccc2)C(=O)N2CCC[C@H]2C(=O)N1)C(N)=O` (single isomer, unassigned) [Compd 86] and `CCCCCCCCCCCCCCCC(=O)NCCCCCC(=O)NCCCC[C@H](NC(=O)[C@@H]1CCC=CCC[C@H](NC(=O)CC(C)C)C(=O)N[C@@H]([C@@H](C)O)C(=O)N[C@@H](Cc2c[nH]cn2)C(=O)N[C@@H](C(c2ccccc2)c2ccccc2)C(=O)N2CCC[C@H]2C(=O)N1)C(N)=O` [Compd 21] (Isovaleryl-[Hag]TH[Dip]P[Hag]K([Ahx-Palmitoyl])-NH2; staple 1-6) cannot be ordered by IC50: > 500 nM for the first, > 500 nM for the second.

`CCCCCCCCCCCCCCCC(=O)NCCCCCC(=O)NCCCC[C@H](NC(=O)C[C@H](Cc1ccccc1)NC(=O)[C@@H](CCCCN)NC(=O)[C@@H](NC(=O)[C@@H]1CCC=CC[C@H](NC(=O)[C@H](Cc2c[nH]cn2)NC(=O)[C@@H](NC(=O)[C@H](CCC(=O)O)NC(=O)CC(C)C)[C@@H](C)O)C(=O)N2CCC[C@H]2C(=O)N1)[C@@H](C)CC)C(=O)N[C@H](CCCCN)C(N)=O` [Compd 4] (Isovaleryl-ETH[AllylGly]P[Hag]I[dK][β3hF]K([Ahx-Palmitoyl])[dK]-NH2; staple 4-6) and `CCCCCCCCCCCCCCCC(=O)NCCCCCC(=O)NCCCC[C@H](NC(=O)C[C@H](Cc1ccccc1)NC(=O)[C@@H](CCCCN)NC(=O)[C@@H](NC(=O)[C@@H]1CCC=CCC[C@H](NC(=O)[C@H](Cc2c[nH]cn2)NC(=O)[C@@H](NC(=O)[C@H](CCC(=O)O)NC(=O)CC(C)C)[C@@H](C)O)C(=O)N2CCC[C@H]2C(=O)N1)[C@@H](C)CC)C(=O)N[C@H](CCCCN)C(N)=O` [Compd 5] (Isovaleryl-ETH[Hag]P[Hag]I[dK][β3hF]K([Ahx-Palmitoyl])[dK]-NH2; staple 4-6) cannot be ordered by IC50: > 500 nM for the first, > 500 nM for the second.

`CCCCCCCCCCCCCCCC(=O)NCCCCCC(=O)NCCCC[C@H](NC(=O)C[C@H](Cc1ccccc1)NC(=O)[C@@H](CCCCN)NC(=O)[C@@H](NC(=O)[C@@H]1CCCCC[C@H](NC(=O)[C@H](Cc2c[nH]cn2)NC(=O)[C@@H](NC(=O)[C@H](CCC(=O)O)NC(=O)CC(C)C)[C@@H](C)O)C(=O)N2CCC[C@H]2C(=O)N1)[C@@H](C)CC)C(=O)N[C@H](CCCCN)C(N)=O` [Compd 7] and `CCCCCCCCCCCCCCCC(=O)NCCCCCC(=O)NCCCC[C@H](NC(=O)C[C@H](Cc1ccccc1)NC(=O)[C@@H](CCCCN)NC(=O)[C@@H](NC(=O)[C@@H]1CCC=CCC[C@H](NC(=O)[C@@H](NC(=O)[C@H](Cc2c[nH]cn2)NC(=O)[C@@H](NC(=O)[C@H](CCC(=O)O)NC(=O)CC(C)C)[C@@H](C)O)C(c2ccccc2)c2ccccc2)C(=O)N1)[C@@H](C)CC)C(=O)N[C@H](CCCCN)C(N)=O` [Compd 11] cannot be ordered by IC50: > 500 nM for the first, > 500 nM for the second.

`CCCCCCCCCCCCCCCC(=O)NCCCCCC(=O)NCCCC[C@H](NC(=O)C[C@H](Cc1ccccc1)NC(=O)[C@@H]1CCC=CCC[C@H](NC(=O)CC(C)C)C(=O)N[C@@H]([C@@H](C)O)C(=O)N[C@@H](Cc2c[nH]cn2)C(=O)N[C@@H](C)C(=O)N2CCC[C@H]2C(=O)N[C@@H](C)C(=O)N[C@@H]([C@@H](C)CC)C(=O)N1)C(=O)N[C@H](CCCCN)C(N)=O` [Compd 43] (Isovaleryl-[Hag]THAPAI[Hag][β3hF]K([Ahx-Palmitoyl])[dK]-NH2; staple 1-8) and `CCCCCCCCCCCCCCCC(=O)NCCCCCC(=O)NCCCC[C@H](NC(=O)C[C@H](Cc1ccccc1)NC(=O)[C@@H]1CCC=CCC[C@H](NC(=O)CC(C)C)C(=O)N[C@@H](CC(C)(C)C)C(=O)N[C@@H](Cc2c[nH]cn2)C(=O)N[C@@H](C(c2ccccc2)c2ccccc2)C(=O)N2CCC[C@H]2C(=O)N[C@@H](C)C(=O)N[C@@H]([C@@H](C)CC)C(=O)N1)C(=O)N[C@H](CCCCN)C(N)=O` [Compd 58] (Isovaleryl-[Hag][tBuAla]H[Dip]PAI[Hag][β3hF]K([Ahx-Palmitoyl])[dK]-NH2; staple 1-8) cannot be ordered by IC50: > 500 nM for the first, > 500 nM for the second.

First: CCCCCCCCCCCCCCCC(=O)NCCCCCC(=O)NCCCC[C@H](NC(=O)C[C@H](Cc1ccccc1)NC(=O)[C@@H]1CCC=CCC[C@H](NC(=O)CC(C)C)C(=O)N[C@@H]([C@@H](C)O)C(=O)N[C@@H](Cc2c[nH]cn2)C(=O)N[C@@H](C(c2ccccc2)c2ccccc2)C(=O)N[C@@H](C)C(=O)N[C@@H](C)C(=O)N[C@@H]([C@@H](C)CC)C(=O)N1)C(=O)N[C@H](CCCCN)C(N)=O [Compd 44] (Isovaleryl-[Hag]TH[Dip]AAI[Hag][β3hF]K([Ahx-Palmitoyl])[dK]-NH2; staple 1-8)
Second: CCCCCCCCCCCCCCCC(=O)NCCCCCC(=O)NCCCC[C@H](NC(=O)C[C@H](Cc1ccccc1)NC(=O)[C@@H]1CCC=CCC[C@H](NC(=O)CC(C)C)C(=O)N[C@@H]([C@@H](C)O)C(=O)N[C@@H](CC(C)(C)C)C(=O)N[C@@H](C(c2ccccc2)c2ccccc2)C(=O)N2CCC[C@H]2C(=O)N[C@@H](C)C(=O)N[C@@H]([C@@H](C)CC)C(=O)N1)C(=O)N[C@H](CCCCN)C(N)=O [Compd 59] (Isovaleryl-[Hag]T[tBuAla][Dip]PAI[Hag][β3hF]K([Ahx-Palmitoyl])[dK]-NH2; staple 1-8)
The IC50 of the first is lower: 10 to 100 nM for the first, > 500 nM for the second. The first is the more potent here.
